Drawing on patent US11370774B2, “Substituted benzofuran, benzopyrrole, benzothiophene, and structurally related complement inhibitors” (BioCryst Pharmaceuticals, Inc., priority 2018, dated 2022), this text covers IC50 for 35 compounds.

The target in the test is Factor D (Homo sapiens (Human), UniProt P00746). The test can be described thus: Factor D esterolytic assay (Z-Lys-SBzl substrate, DTNB, 405 nm). It is filed as biochemical. The conditions noted are these: Z-Lys-SBzl 1.29 mM, pH 7.5, 10% DMSO, tested a minimum of three times, read-out: Measured Ki (IC50) Value for Compounds: IC50. A digest of the protocol: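 Thioester hydrolysis (Z-Lys-SBzl, 1.29 mM) by human Factor D ([…]) detected through DTNB color at 405 nm over 600 sec, minus 690 nm background. Buffer: 100 mM HEPES pH 7.5, 500 mM NaCl, 10% DMSO; optional room-temperature preincubation before substrate. IC50 derived from percent rate inhibition; at least three runs.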
Chain of Factor D (P00746 26-253): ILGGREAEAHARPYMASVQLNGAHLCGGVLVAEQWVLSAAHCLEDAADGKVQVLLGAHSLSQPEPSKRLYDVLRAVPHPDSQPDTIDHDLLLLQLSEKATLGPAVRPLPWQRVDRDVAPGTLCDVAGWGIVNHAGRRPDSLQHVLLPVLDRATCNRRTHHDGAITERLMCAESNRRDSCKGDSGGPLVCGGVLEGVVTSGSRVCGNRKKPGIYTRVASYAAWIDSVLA
Consider `NCc1cccc(-c2cc(COc3ccccc3CC(=O)O)cc3cc(C(F)(F)F)oc23)c1F` [Compound 235b, 2-(2-((7-(3-(aminomethyl)-2-fluorophenyl)-2-(trifluoromethyl)benzofuran-5-yl)methoxy)phenyl)acetic acid], for which the IC50 (commonly the concentration at which inhibition is half-maximal) was under 1 µM. The same measure for `NCc1cccc(-c2cc(COc3cc(CN)ccc3CC(=O)O)cc3ccoc23)c1` [Compound 236d, 2-(4-(aminomethyl)-2-((7-(3-(aminomethyl)phenyl)benzofuran-5-yl)methoxy)phenyl)acetic acid]: under 1 µM. Consider `N#Cc1ccc(CC(=O)O)c(OCc2cc(-c3cccc(CN)c3)c3occc3c2)c1` [Compound 237b, 2-(2-((7-(3-(aminomethyl)phenyl)benzofuran-5-yl)methoxy)-4-cyanophenyl)acetic acid], for which the IC50 was under 1 µM. Next, `NCc1cccc(-c2cc(COc3cc(C(N)=O)ccc3CC(=O)O)cc3ccoc23)c1` [Compound 238c, 2-(2-((7-(3-(aminomethyl)phenyl)benzofuran-5-yl)methoxy)-4-carbamoylphenyl)acetic acid]: under 1 µM. The same measure for `N#Cc1ccc(OCc2cc(-c3cccc(CN)c3)c3occc3c2)c(CC(=O)O)c1` [Compound 239c, 2-(2-((7-(3-(aminomethyl)phenyl)benzofuran-5-yl)methoxy)-5-cyanophenyl)acetic acid]: under 1 µM.

As for `NCc1nccc(-c2cc(COc3ccccc3CC(=O)O)cc3cc(C(F)(F)F)oc23)c1F` [Compound 240d, 2-(2-((7-(2-(aminomethyl)-3-fluoropyridin-4-yl)-2-(trifluoromethyl)benzofuran-5-yl)methoxy)phenyl)acetic acid], the IC50 is under 1 µM.

On to `NCc1cccc(-c2cc(C(=O)Nc3ccccc3CC(=O)O)c(F)c3ccoc23)c1` [Compound 241c, 2-(2-(7-(3-(aminomethyl)phenyl)-4-fluorobenzofuran-5-carboxamido)phenyl)acetic acid], for which the IC50 is under 1 µM. Next, `NCc1ccccc1-c1cc(COc2ccccc2CC(=O)O)cc2ccoc12` [Compound 243d, 2-(2-((7-(2-(aminomethyl)phenyl)benzofuran-5-yl)methoxy)phenyl)acetic acid]: over 10 µM; `NCc1cccc(-c2cc(COc3ccc(C(N)=O)cc3CC(=O)O)cc3ccoc23)c1` [Compound 244c, 2-(2-((7-(3-(aminomethyl)phenyl)benzofuran-5-yl)methoxy)-5-carbamoylphenyl)acetic acid]: 1 to 10 µM; `NCc1cccc(-c2cc(COc3ccccc3CC(=O)O)cc3c(N)noc23)c1F` [Compound 245g, 2-(2-((3-amino-7-(3-(aminomethyl)-2-fluorophenyl)benzo[d]isoxazol-5-yl)methoxy)phenyl)acetic acid]: under 1 µM. Next, `NCc1cccc(-c2cc(C(=O)Nc3ccccc3CC(=O)O)c(F)c3ccoc23)c1F` [Compound 246b, 2-(2-(7-(3-(aminomethyl)-2-fluorophenyl)-4-fluorobenzofuran-5-carboxamido)phenyl)acetic acid]: under 1 µM.

Turning to `NCc1cccc(-c2cc(COc3ccccc3CC(=O)O)cc3ccsc23)c1F` [Compound 247b, 2-(2-((7-(3-(aminomethyl)-2-fluorophenyl)benzo[b]thiophen-5-yl)methoxy)phenyl)acetic acid], the IC50 is under 1 µM. Next, `NCc1cccc(-c2cc(COc3ccccc3CC(=O)O)cc3ccoc23)c1O` [Compound 248c, 2-(2-((7-(3-(aminomethyl)-2-hydroxyphenyl)benzofuran-5-yl)methoxy)phenyl)acetic acid]: under 1 µM; `NCc1cccc(-c2cc(COc3ccc(O)cc3CC(=O)O)cc3ccoc23)c1` [Compound 249f, 2-(2-((7-(3-(aminomethyl)phenyl)benzofuran-5-yl)methoxy)-5-hydroxyphenyl)acetic acid]: under 1 µM. Take `NCc1cccc(-c2cc(NC(=O)[C@@H]3CCCN3CC(=O)O)cc3ccoc23)c1` [Compound 250f, (S)-2-(2-((7-(3-(aminomethyl)phenyl)benzofuran-5-yl)carbamoyl)pyrrolidin-1-yl)acetic acid]: the IC50 was 1 to 10 µM. Take `COc1c(C(=O)Nc2ccccc2CC(=O)O)cc(-c2ccnc(CN)c2)c2occc12` [Compound 251c, 2-(2-(7-(2-(aminomethyl)pyridin-4-yl)-4-methoxybenzofuran-5-carboxamido)phenyl)acetic acid]: the IC50 was 1 to 10 µM. The same measure for `CC(=O)c1cc2cc(COc3ccccc3CC(=O)O)cc(-c3cccc(CN)c3)c2o1` [Compound 252d, 2-(2-((2-acetyl-7-(3-(aminomethyl)phenyl)benzofuran-5-yl)methoxy)phenyl)acetic acid]: under 1 µM; for `NCc1cccc(-c2cc(COc3ccccc3C(NC(=O)CCc3ccccc3)C(=O)O)cc3ccoc23)c1` (centres unmarked) [Compound 253f, 2-(2-((7-(3-(aminomethyl)phenyl)benzofuran-5-yl)methoxy)phenyl)-2-(3-phenylpropanamido)acetic acid]: under 1 µM; for `NCc1cccc(-c2cc(COc3ccc(CO)cc3CC(=O)O)cc3ccoc23)c1` [Compound 254c, 2-(2-((7-(3-(aminomethyl)phenyl)benzofuran-5-yl)methoxy)-5-(hydroxymethyl)phenyl)acetic acid]: under 1 µM. The same measure for `NCc1cccc(-c2cc(C(=O)Nc3ccccc3CC(=O)O)nc3ccoc23)c1` [Compound 255c, 2-(2-(7-(3-(aminomethyl)phenyl)furo[3,2-b]pyridine-5-carboxamido)phenyl)acetic acid]: 1 to 10 µM; for `NCc1cc(F)cc(-c2cc(COc3ccccc3CC(=O)O)cc3ccoc23)c1F` [Compound 256c, 2-(2-((7-(3-(aminomethyl)-2,5-difluorophenyl)benzofuran-5-yl)methoxy)phenyl)acetic acid]: under 1 µM; for `Cc1cc2cc(COc3cc(CN)ccc3CC(=O)O)cc(-c3cccc(CN)c3)c2o1` [Compound 257k, 2-(4-(aminomethyl)-2-((7-(3-(aminomethyl)phenyl)-2-methylbenzofuran-5-yl)methoxy)phenyl)acetic acid]: under 1 µM. With `NCc1cccc(-c2cc(COc3cc(F)ccc3CC(=O)O)cc3ccoc23)c1` [Compound 260g, 2-(2-((7-(3-(aminomethyl)phenyl)benzofuran-5-yl)methoxy)-4-fluorophenyl)acetic acid], the IC50 was under 1 µM. As for `NCc1cccc(-c2cc(COc3cc(CC4CC4)ccc3CC(=O)O)cc3ccoc23)c1` [Compound 261c, 2-(2-((7-(3-(aminomethyl)phenyl)benzofuran-5-yl)methoxy)-4-(cyclopropylmethyl)phenyl)acetic acid], the IC50 was under 1 µM. The same measure for `CC(=O)c1ccc(CC(=O)O)c(OCc2cc(-c3cccc(CN)c3)c3occc3c2)c1` [Compound 262c, 2-(4-acetyl-2-((7-(3-(aminomethyl)phenyl)benzofuran-5-yl)methoxy)phenyl)acetic acid]: under 1 µM; for `NCc1cccc(-c2cc(COc3cc(-c4ccccc4)ccc3CC(=O)O)cc3ccoc23)c1` [Compound 263c, 2-(3-((7-(3-(aminomethyl)phenyl)benzofuran-5-yl)methoxy)-[1,1′-biphenyl]-4-yl)acetic acid]: under 1 µM; for `NCc1cccc(-c2cc(COc3c(F)cccc3CC(=O)O)cc3ccoc23)c1` [Compound 264c, 2-(2-((7-(3-(aminomethyl)phenyl)benzofuran-5-yl)methoxy)-3-fluorophenyl)acetic acid]: under 1 µM.

Consider `CCOc1ccc(CC(=O)O)c(OCc2cc(-c3cccc(CN)c3)c3occc3c2)c1` [Compound 265g, 2-(2-((7-(3-(aminomethyl)phenyl)benzofuran-5-yl)methoxy)-4-ethoxyphenyl)acetic acid], for which the IC50 is under 1 µM. On to `CCCc1ccc(CC(=O)O)c(OCc2cc(-c3cccc(CN)c3)c3occc3c2)c1` [Compound 266g, 2-(2-((7-(3-(aminomethyl)phenyl)benzofuran-5-yl)methoxy)-4-propylphenyl)acetic acid], for which the IC50 was under 1 µM.

Turning to `Cc1noc2c(-c3cccc(CN)c3F)cc(COc3ccccc3CC(=O)O)cc12` [Compound 267h, 2-(2-((7-(3-(aminomethyl)-2-fluorophenyl)-3-methylbenzo[d]isoxazol-5-yl)methoxy)phenyl)acetic acid], the IC50 is under 1 µM. Turning to `Cc1noc2c(-c3ccnc(CN)c3)cc(COc3ccccc3CC(=O)O)cc12` [Compound 268h, 2-(2-((7-(2-(aminomethyl)pyridin-4-yl)-3-methylbenzo[d]isoxazol-5-yl)methoxy)phenyl)acetic acid], the IC50 was under 1 µM. Next, `Cc1ccc(CC(=O)O)c(OCc2cc(-c3cccc(CN)c3F)c3occc3c2)c1` [Compound 270c, 2-(2-((7-(3-(aminomethyl)-2-fluorophenyl)benzofuran-5-yl)methoxy)-4-methylphenyl)acetic acid]: under 1 µM; `Cc1ccc(CC(=O)O)c(OCc2cc(-c3ccnc(CN)c3)c3occc3c2)c1` [Compound 271e, 2-(2-((7-(2-(aminomethyl)pyridin-4-yl)benzofuran-5-yl)methoxy)-4-methylphenyl)acetic acid]: under 1 µM; `Cc1ccc(CC(=O)O)c(OCc2cc(-c3ccnc(CN)c3F)c3occc3c2)c1` [Compound 272e, 2-(2-((7-(2-(aminomethyl)-3-fluoropyridin-4-yl)benzofuran-5-yl)methoxy)-4-methylphenyl)acetic acid]: under 1 µM. The same measure for `NCc1cccc(-c2cc(CC(=O)N3[C@@H]4C[C@@H]4C[C@H]3C(=O)NCc3cccc(Cl)c3F)cc3ccoc23)c1` [Compound 273g, (1R,3S,5R)-2-(2-(7-(3-(aminomethyl)phenyl)benzofuran-5-yl)acetyl)-N-(3-chloro-2-fluorobenzyl)-2-azabicyclo[3.1.0]hexane-3-carboxamide]: under 1 µM.
